{"source": "patent US6716828B1", "about": "“Compounds, methods and pharmaceutical compositions for treating cellular damage, such as neural or cardiovascular tissue damage” (Guilford Pharmaceuticals, Inc., priority 1999, dated 2004)", "key": {"[1]": {"system": "male Long-Evans rats", "assay": "Focal cerebral ischemia (right distal MCA cauterization with bilateral temporary CCA occlusion)", "format": "in vivo", "settings": "for damaged volume (infarct volume): mean±SD", "method": "Focal cerebral ischemia is produced by cauterization of the right distal MCA (middle cerebral artery) with bilateral temporary common carotid artery occlusion in male Long-Evans rats for 90 minutes. All procedures performed on the animals are approved by the University Institutional Animal Care and Use Committee of the University of Pennsylvania. A total of 42 rats (weights: 230-340 g) obtained from Charles River were used in this study. The animals fasted overnight with free access to water prior to the surgical procedure.\nTwo hours prior to MCA occlusion, varying amounts (control, n=14; 5 mg/kg, n=7; 10 mg/kg, n=7; 20 mg/kg, n=7; and 40 mg/kg, n=7) of the compound, 3,4-dihydro-5-[4-(1-piperidinyl)-butoxy]-1(2H)-isoquinolinone (“DPQ”) were dissolved in dimethyl sulfoxide (DMSO) using a sonicator. A volume of 1.28 ml/kg of the resulting solution was injected intraperiotoneally into fourteen rats.\nThe rats were then anesthetized with halothane (4% for induction and 0.8%-[…] for the surgical procedure) in a mixture of 70% nitrous oxide and 30% oxygen. The body temperature was monitored by a rectal probe and maintained at 37.5±0.5° C. with a heating blanket regulated by a homethermic blanket control unit (Harvard Apparatus Limited, Kent, U.K.). A catheter (PE-50) was placed into the tail artery, and arterial pressure was continuously monitored and recorded on a Grass polygraph recorder (Model 7D, Grass Instruments, Quincy, Mass.). Samples for blood gas analysis (arterial pH, PaO2 and PaCO2) were also taken from the tail artery catheter and measured with a blood gas analyzer (ABL 30, Radiometer, Copenhagen, Denmark). Arterial blood samples were obtained 30 minutes after MCA occlusion.\nThe head of the animal was positioned in a stereotaxic frame, and a right parietal incision between the right lateral canthus and the external auditory meatus was made. Using a dental drill constantly cooled with saline, a 3 mm burr hole was prepared over the cortex supplied by the right MCA. 4 mm lateral to the sagittal suture and 5 mm caudal to the coronal suture. The dura mater and a thin inner bone layer were kept, care being taken to position the probe over a tissue area devoid of large blood vessels. The flow probe (tip diameter of 1 mm, fiber separation of 0.25 mm) was lowered to the bottom of the cranial burr hole using a micromanipulator. The probe was held stationary by a probe holder secured to the skull with dental cement. The microvascular blood flow in the right parietal cortex was continuously monitored with a laser Doppler flowmeter (FloLab, Moor, Devon, U.K., and Periflux 4001, Perimed, Stockholm, Sweden).\nFocal cerebral ischemia was produced by cauterization of the distal portion of the right MCA with bilateral temporary common caroud artery (CCA) occlusion by the procedure of Chen et al., “A Model of Focal Ischemic Stroke in the Rat: Reproducible Extensive Cortical Infarction”, Stroke 17:738-43 (1986) and/or Liu et al., “Polyethylene Glycol-conjugated Superoxide Dismutase and Catalase Reduce Ischemic Brain Injury”, Am. J. Physiol. 256:H589-93 (1989), both of which are hereby incorporated by reference.\nSpecifically, bilateral CCA's were isolated, and loops made from polyethylene (PE-10) catheter were carefully passed around the CCA's for later remote occlusion. […]"}, "[2]": {"molecular_target": "PARP (Homo sapiens, UniProt P09874)", "sequence (P09874 whole entry)": "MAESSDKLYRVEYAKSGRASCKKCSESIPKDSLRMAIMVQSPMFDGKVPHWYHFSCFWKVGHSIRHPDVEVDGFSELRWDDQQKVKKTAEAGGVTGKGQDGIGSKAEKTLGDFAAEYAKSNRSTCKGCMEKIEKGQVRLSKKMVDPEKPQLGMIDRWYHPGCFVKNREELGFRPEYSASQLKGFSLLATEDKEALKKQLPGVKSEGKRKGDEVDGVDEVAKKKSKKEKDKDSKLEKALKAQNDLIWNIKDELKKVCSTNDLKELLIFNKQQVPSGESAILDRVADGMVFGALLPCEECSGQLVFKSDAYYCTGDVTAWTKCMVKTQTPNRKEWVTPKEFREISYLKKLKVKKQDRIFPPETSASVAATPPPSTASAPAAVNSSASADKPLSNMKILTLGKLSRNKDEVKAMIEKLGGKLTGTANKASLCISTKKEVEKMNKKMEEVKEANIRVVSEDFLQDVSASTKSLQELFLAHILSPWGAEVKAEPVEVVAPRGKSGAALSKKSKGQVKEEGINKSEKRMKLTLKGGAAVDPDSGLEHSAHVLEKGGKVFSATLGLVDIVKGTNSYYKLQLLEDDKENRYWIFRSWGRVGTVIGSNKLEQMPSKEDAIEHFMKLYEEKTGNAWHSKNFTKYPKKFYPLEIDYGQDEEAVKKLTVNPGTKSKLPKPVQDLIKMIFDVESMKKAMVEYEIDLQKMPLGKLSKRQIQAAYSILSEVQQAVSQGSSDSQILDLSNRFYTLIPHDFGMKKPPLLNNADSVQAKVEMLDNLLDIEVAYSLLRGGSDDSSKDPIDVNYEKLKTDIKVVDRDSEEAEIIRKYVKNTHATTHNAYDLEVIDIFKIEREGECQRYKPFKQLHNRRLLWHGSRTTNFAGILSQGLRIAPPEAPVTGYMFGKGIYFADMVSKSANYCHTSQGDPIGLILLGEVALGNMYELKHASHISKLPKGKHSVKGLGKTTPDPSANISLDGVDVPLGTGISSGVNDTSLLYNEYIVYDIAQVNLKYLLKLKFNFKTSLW", "settings": "read-out: IC50 for inhibiting PARP; reported by Suto et al.; cited from earlier work"}}}
{"smiles": "O=C1NCCc2c(OCCCCN3CCCCC3)cccc21", "note": "[DPQ, 3,4-dihydro-5-[4-(1-piperidinyl)-butoxy]-1(2H)-isoquinolinone]", "values": [{"measurement": "damaged volume (infarct volume)", "setting": "[1]; 5 mg/kg i.p. 2 h before and 2 h after MCA occlusion, p<0.001 vs control", "value": "106.7±23.2", "unit": "mm^3"}, {"measurement": "damaged volume (infarct volume)", "setting": "[1]; 10 mg/kg i.p. 2 h before and 2 h after MCA occlusion, p<0.001 vs control", "value": "76.4±16.8", "unit": "mm^3"}, {"measurement": "damaged volume (infarct volume)", "setting": "[1]; 20 mg/kg i.p. 2 h before and 2 h after MCA occlusion, p<0.01 vs control", "value": "110.2±42.0", "unit": "mm^3"}, {"measurement": "damaged volume (infarct volume)", "setting": "[1]; 40 mg/kg i.p. 2 h before and 2 h after MCA occlusion, not significant vs control", "value": "135.6±44.8", "unit": "mm^3"}, {"measurement": "infarct volume, overall effect of in vivo administration", "setting": "[1]; focal cerebral ischemia model in the rat", "value": "substantial reduction in infarct volume"}, {"measurement": "IC50", "setting": "[2]", "value": 10, "unit": "nM"}]}
